Data as given in US10266537B2, “3-acetylenyl-pyrazole-pyrimidine derivative, and preparation method therefor and uses thereof” (Si Chuan University, priority 2015, dated 2019).
Read-outs that look alike come from different tables or passages of the source.

Tests used:
[1] = test system: MDA-MB-435; assay: Cell proliferation inhibition assay (MTT); assay type: cell-based, human; conditions: Homo sapiens, read-out: Proliferative inhibitory activity MDA-MB-435 (IC50 class)
[2] = molecular target: c-Src(1-530) (Homo sapiens (Human), UniProt P12931); assay: Kinase inhibition assay (KinaseProfiler, 33P-ATP); conditions: c-Src(1-530); ATP at Km
[3] = test system: MDA-MB-231; assay: Cell proliferation inhibition assay (MTT); assay type: cell-based, human; conditions: Homo sapiens, read-out: Proliferative inhibitory activity MDA-MB-231 (IC50 class)
[4] = molecular target: Ret (Homo sapiens (Human), UniProt P07949); assay: Kinase inhibition assay (KinaseProfiler, 33P-ATP); assay type: biochemical; conditions: Ret(h); compound at 10 μM; read-out: The percentage of the remaining active protein
[5] = molecular target: mTOR(h) (Homo sapiens (Human), UniProt P42345); assay: Kinase inhibition assay (KinaseProfiler, 33P-ATP); assay type: biochemical; conditions: compound at 10 μM, read-out: The percentage of the remaining active protein
[6] = molecular target: DDR2 (Homo sapiens (Human), UniProt Q16832); assay: Kinase inhibition assay (KinaseProfiler, 33P-ATP); assay type: biochemical; conditions: DDR2(h); compound at 10 μM; read-out: The percentage of the remaining active protein
[7] = molecular target: FGFR1 (Homo sapiens (Human), UniProt P11362); assay: Kinase inhibition assay (KinaseProfiler, 33P-ATP); assay type: biochemical; conditions: FGFR1(h); compound at 10 μM; read-out: The percentage of the remaining active protein
[8] = molecular target: Fyn (Homo sapiens (Human), UniProt P06241); assay: Kinase inhibition assay (KinaseProfiler, 33P-ATP); assay type: biochemical; conditions: Fyn(h); compound at 10 μM; read-out: The percentage of the remaining active protein
[9] = molecular target: Met(h) (Homo sapiens (Human), UniProt P08581); assay: Kinase inhibition assay (KinaseProfiler, 33P-ATP); assay type: biochemical; conditions: compound at 10 μM, read-out: The percentage of the remaining active protein
[10] = molecular target: Flt3(h) (Homo sapiens (Human), UniProt P36888); assay: Kinase inhibition assay (KinaseProfiler, 33P-ATP); assay type: biochemical; conditions: compound at 10 μM, read-out: The percentage of the remaining active protein
[11] = molecular target: EphB4 (Homo sapiens (Human), UniProt P54760); assay: Kinase inhibition assay (KinaseProfiler, 33P-ATP); assay type: biochemical; conditions: for remaining activity at 10 µM: EphB4(h), compound at 10 μM, read-out: The percentage of the remaining active protein
[12] = molecular target: ULK3(h) (Homo sapiens (Human), UniProt Q6PHR2); assay: Kinase inhibition assay (KinaseProfiler, 33P-ATP); assay type: biochemical; conditions: compound at 10 μM, read-out: The percentage of the remaining active protein
[13] = molecular target: Hck (Homo sapiens (Human), UniProt P08631); assay: Kinase inhibition assay (KinaseProfiler, 33P-ATP); assay type: biochemical; conditions: Hck(h); compound at 10 μM; read-out: The percentage of the remaining active protein
[14] = molecular target: cKit(h) (Homo sapiens (Human), UniProt P10721); assay: Kinase inhibition assay (KinaseProfiler, 33P-ATP); assay type: biochemical; conditions: compound at 10 μM, read-out: The percentage of the remaining active protein
[15] = molecular target: TrkA (Homo sapiens (Human), UniProt P04629); assay: Kinase inhibition assay (KinaseProfiler, 33P-ATP); assay type: biochemical; conditions: for IC50: TrkA, ATP at Km
[16] = molecular target: cSRC(h) (Homo sapiens (Human), UniProt P12931); assay: Kinase inhibition assay (KinaseProfiler, 33P-ATP); assay type: biochemical; conditions: compound at 10 μM, read-out: The percentage of the remaining active protein
[17] = molecular target: Lyn (Homo sapiens (Human), UniProt P07948); assay: Kinase inhibition assay (KinaseProfiler, 33P-ATP); assay type: biochemical; conditions: Lyn(h); compound at 10 μM; read-out: The percentage of the remaining active protein
[18] = molecular target: Abl(T315I) (Homo sapiens (Human), UniProt P00519, T315I); assay: Kinase inhibition assay (KinaseProfiler, 33P-ATP); assay type: biochemical; conditions: Abl(T315I)(h); compound at 10 μM; read-out: The percentage of the remaining active protein
[19] = molecular target: Yes (Homo sapiens (Human), UniProt P07947); assay: Kinase inhibition assay (KinaseProfiler, 33P-ATP); assay type: biochemical; conditions: for IC50: Yes, ATP at Km
Yes, sequence (P07947 whole entry): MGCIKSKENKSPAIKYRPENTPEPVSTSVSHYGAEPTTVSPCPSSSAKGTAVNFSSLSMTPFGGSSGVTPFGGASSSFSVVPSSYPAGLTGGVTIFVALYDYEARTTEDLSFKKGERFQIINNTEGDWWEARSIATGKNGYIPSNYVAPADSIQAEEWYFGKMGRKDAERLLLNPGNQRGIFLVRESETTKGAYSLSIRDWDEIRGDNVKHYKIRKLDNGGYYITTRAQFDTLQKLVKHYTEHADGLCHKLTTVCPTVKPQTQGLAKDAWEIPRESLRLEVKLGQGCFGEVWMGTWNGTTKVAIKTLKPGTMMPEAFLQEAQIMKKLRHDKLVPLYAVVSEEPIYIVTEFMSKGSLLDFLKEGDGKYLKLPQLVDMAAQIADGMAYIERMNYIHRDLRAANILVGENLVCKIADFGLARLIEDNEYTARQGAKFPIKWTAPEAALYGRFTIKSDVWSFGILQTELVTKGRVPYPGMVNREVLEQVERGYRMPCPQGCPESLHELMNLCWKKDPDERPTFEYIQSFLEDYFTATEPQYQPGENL

EphB4, sequence (P54760 16-987): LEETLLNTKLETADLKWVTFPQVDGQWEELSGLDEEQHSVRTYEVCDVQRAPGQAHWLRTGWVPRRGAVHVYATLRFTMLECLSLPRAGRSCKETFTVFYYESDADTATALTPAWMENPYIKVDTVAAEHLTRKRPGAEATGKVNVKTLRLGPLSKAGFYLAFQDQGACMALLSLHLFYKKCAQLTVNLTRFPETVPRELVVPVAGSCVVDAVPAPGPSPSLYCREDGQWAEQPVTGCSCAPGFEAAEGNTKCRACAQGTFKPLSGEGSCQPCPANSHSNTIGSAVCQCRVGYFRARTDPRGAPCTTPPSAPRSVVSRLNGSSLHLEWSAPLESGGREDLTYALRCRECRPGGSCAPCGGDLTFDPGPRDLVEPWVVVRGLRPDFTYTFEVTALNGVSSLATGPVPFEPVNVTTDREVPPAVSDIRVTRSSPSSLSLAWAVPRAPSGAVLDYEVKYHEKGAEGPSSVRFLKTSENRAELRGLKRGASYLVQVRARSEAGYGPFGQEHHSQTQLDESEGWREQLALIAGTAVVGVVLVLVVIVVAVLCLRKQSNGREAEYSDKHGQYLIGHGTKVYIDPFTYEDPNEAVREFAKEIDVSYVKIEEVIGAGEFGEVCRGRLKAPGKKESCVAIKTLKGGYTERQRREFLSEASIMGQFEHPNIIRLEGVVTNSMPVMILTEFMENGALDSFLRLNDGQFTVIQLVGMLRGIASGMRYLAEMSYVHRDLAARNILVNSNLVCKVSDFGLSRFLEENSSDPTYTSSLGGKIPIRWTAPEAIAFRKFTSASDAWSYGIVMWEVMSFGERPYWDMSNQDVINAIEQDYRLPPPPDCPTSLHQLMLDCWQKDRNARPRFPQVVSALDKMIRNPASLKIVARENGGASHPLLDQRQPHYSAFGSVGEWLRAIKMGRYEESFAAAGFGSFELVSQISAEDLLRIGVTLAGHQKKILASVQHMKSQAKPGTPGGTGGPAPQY
TrkA, sequence (P04629 33-796): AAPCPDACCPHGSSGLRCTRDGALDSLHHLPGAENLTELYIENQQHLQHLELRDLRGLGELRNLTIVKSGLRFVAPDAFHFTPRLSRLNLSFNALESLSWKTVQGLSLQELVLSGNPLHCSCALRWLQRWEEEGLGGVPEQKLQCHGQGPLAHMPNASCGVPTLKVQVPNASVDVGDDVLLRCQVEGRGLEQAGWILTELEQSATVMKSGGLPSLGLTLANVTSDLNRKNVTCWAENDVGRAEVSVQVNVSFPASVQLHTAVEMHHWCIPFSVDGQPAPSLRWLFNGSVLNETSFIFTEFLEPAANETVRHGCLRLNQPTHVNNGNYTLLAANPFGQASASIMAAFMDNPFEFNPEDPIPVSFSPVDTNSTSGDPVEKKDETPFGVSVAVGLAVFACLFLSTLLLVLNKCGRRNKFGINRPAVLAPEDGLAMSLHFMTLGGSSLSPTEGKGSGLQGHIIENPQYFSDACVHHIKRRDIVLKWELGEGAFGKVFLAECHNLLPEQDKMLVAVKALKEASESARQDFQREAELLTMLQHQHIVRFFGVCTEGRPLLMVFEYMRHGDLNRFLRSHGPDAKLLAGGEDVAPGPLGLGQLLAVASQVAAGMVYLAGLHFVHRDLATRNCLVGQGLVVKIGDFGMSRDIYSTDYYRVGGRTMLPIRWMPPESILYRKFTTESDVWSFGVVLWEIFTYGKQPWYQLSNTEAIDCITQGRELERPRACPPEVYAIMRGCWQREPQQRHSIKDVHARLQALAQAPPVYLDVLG
c-Src(1-530), sequence (P12931 whole entry, looked up): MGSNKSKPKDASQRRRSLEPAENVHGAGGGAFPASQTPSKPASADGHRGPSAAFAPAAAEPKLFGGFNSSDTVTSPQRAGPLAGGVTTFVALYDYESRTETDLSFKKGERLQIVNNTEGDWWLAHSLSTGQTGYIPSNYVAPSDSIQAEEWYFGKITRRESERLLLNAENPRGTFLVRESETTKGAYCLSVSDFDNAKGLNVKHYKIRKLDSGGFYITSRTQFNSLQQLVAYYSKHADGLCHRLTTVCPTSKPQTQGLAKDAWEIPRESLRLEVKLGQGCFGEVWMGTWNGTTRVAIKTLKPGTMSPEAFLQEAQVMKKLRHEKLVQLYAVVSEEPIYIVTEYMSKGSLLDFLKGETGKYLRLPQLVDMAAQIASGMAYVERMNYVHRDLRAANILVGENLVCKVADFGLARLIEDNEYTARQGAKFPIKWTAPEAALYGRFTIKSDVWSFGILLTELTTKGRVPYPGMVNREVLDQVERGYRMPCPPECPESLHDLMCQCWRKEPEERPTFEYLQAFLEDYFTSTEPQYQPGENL
FGFR1, sequence (P11362 22-822): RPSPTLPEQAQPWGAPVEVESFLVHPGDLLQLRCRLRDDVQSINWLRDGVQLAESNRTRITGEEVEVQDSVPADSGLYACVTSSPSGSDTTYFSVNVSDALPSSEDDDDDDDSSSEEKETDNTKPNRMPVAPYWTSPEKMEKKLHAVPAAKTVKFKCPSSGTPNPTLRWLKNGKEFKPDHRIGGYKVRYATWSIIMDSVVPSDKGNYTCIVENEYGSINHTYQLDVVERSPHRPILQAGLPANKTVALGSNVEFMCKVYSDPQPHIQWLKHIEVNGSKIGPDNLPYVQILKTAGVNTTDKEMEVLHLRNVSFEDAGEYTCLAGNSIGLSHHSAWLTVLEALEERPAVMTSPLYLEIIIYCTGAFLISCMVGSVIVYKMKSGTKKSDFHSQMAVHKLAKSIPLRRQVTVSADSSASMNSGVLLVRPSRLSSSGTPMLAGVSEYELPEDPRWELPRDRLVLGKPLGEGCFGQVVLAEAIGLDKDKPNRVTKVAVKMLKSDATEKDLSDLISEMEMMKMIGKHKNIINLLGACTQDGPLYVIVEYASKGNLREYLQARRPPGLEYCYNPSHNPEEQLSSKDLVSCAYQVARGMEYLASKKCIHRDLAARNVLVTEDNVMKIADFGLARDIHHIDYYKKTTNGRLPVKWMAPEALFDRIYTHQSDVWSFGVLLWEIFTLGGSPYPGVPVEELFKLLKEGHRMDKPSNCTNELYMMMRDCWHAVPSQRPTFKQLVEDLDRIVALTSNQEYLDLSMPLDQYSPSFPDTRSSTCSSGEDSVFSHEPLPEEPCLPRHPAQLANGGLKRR
Hck, sequence (P08631 whole entry): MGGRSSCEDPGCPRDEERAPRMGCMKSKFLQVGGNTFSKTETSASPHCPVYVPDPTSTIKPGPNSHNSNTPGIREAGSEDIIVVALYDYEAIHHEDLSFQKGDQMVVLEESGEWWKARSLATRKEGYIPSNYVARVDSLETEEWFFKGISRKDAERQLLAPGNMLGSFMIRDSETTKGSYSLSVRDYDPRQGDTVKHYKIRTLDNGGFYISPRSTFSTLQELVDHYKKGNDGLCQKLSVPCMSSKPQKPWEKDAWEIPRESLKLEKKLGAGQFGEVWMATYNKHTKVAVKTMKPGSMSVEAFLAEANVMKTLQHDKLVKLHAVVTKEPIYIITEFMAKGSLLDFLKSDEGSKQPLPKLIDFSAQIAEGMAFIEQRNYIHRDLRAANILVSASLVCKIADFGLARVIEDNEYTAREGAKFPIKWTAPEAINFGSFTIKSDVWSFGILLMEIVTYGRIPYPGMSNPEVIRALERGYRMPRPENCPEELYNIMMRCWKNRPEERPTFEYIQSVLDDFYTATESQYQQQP
cSRC(h), sequence (P12931 whole entry, looked up): as the sequence (P12931 whole entry, looked up) above

Structure (SMILES) | IC50 ([1]; MDA-MB-435, MTT, 72 hours) [nM] | IC50 [2] [nM] | IC50 ([3]; MDA-MB-231, MTT, 72 hours) [nM] | other results
Cc1ccc(NC(=O)c2cccc(C(F)(F)F)c2)cc1C#Cc1nn(C(C)C)c2ncnc(N)c12 [Compound 18] | 100 to 500 | 4 | < 100 | –
Cc1ccc(C(=O)Nc2ccc(CN3CCN(C)CC3)c(C(F)(F)F)c2)cc1C#Cc1nn(C2CCNCC2)c2ncnc(N)c12 [Compound 120] | – | – | – | remaining activity at 10 µM [4]: -16%; remaining activity at 10 µM [5]: 96%; remaining activity at 10 µM [6]: 3%; remaining activity at 10 µM [7]: -1%; remaining activity at 10 µM [8]: 1%; remaining activity at 10 µM [9]: 81%; remaining activity at 10 µM [10]: 0%; remaining activity at 10 µM [11]: -1%; IC50 ([11]; EphB4, ATP at Km): 28 nM; remaining activity at 10 µM [12]: 1%; remaining activity at 10 µM [13]: -2%; remaining activity at 10 µM [14]: 18%; remaining activity at 10 µM ([15]; TrkA(h), compound at 10 μM, read-out: The percentage of the remaining active protein): 0%; IC50 [15]: 91 nM; remaining activity at 10 µM [16]: 0%; remaining activity at 10 µM [17]: -2%; remaining activity at 10 µM [18]: -1%; remaining activity at 10 µM ([19]; Yes(h), compound at 10 μM, read-out: The percentage of the remaining active protein): 0%; IC50 [19]: < 1 nM
CC(C)n1nc(C#Cc2cc(C(=O)Nc3ccc(CN4CCN(C)CC4)c(C(F)(F)F)c3)ccc2Cl)c2c(N)ncnc21 [Compound 9] | < 100 | 15 | 100 to 500 | –
Cc1ccc(NC(=O)c2ccc(CN3CCN(C)CC3)c(C(F)(F)F)c2)cc1C#Cc1nn(C(C)C)c2ncnc(N)c12 [Compound 16] | < 100 | 7 | < 100 | –
Cc1cn(-c2cc(NC(=O)c3ccc(C)c(C#Cc4nn(C(C)C)c5ncnc(N)c45)c3)cc(C(F)(F)F)c2)cn1 [Compound 12] | > 1000 | 139 | > 1000 | –
Cc1ccc(C(=O)Nc2cccc(C(F)(F)F)c2)cc1C#Cc1nn(C(C)C)c2ncnc(N)c12 [Compound 14] | > 1000 | 3 | 100 to 500 | –
Cc1ccc(C(=O)Nc2ccc(CN3CCN(C)CC3)c(C(F)(F)F)c2)cc1C#Cc1nn(C2CCC2)c2ncnc(N)c12 [Compound 6] | < 100 | 9 | < 100 | –
Cc1ccc(C(=O)Nc2ccc(CN3CCN(C)CC3)c(C(F)(F)F)c2)cc1C#Cc1nn(C2CCCC2)c2ncnc(N)c12 [Compound 7] | < 100 | 19 | < 100 | –
C=CC(=O)N1CCC(n2nc(C#Cc3cc(C(=O)Nc4ccc(CN5CCN(C)CC5)c(C(F)(F)F)c4)ccc3C)c3c(N)ncnc32)CC1 [Compound 121, 3-((1-(1-acryloyloxy-4-yl)-4-amino-1H-pyrazolo [3,4-d]pyrimidin-3-yl)ethynyl)-4-methyl-N-(4-((4-methylpiperazin-1-yl)methyl)-3-(trifluoromethyl)phenyl) benzamide] | – | – | – | remaining activity at 10 µM [4]: -2%; IC50 ([1]; MDA-MB-435, 72 h): < 100 nM; remaining activity at 10 µM [6]: 4%; remaining activity at 10 µM [7]: -1%; remaining activity at 10 µM [8]: -1%; remaining activity at 10 µM [11]: 0%; IC50 ([3]; MDA-MB-231, 72 h): < 100 nM; remaining activity at 10 µM [13]: 1%; remaining activity at 10 µM [14]: 59%; IC50 [15]: 52 nM; remaining activity at 10 µM [16]: 0%; remaining activity at 10 µM [17]: 2%; IC50 [19]: 2 nM

Further lines, with some results ahead:

IC50 ([1]; MDA-MB-435, MTT, 72 hours) [nM] | IC50 [2] [nM] | IC50 ([3]; MDA-MB-231, MTT, 72 hours) [nM] | Structure (SMILES) | other results
> 1000 | 59 | 100 to 500 | CCn1nc(C#Cc2cc(C(=O)Nc3ccc(CN4CCN(C)CC4)c(C(F)(F)F)c3)ccc2OC)c2c(N)ncnc21 [Compound 24] | –
> 1000 | 83 | 100 to 500 | CCc1ccc(C(=O)Nc2ccc(CN3CCN(C)CC3)c(C(F)(F)F)c2)cc1C#Cc1nn(CC)c2ncnc(N)c12 [Compound 10] | –
< 100 | 5 | < 100 | CCn1nc(C#Cc2cccc(C(=O)Nc3ccc(CN4CCN(C)CC4)c(C(F)(F)F)c3)c2)c2c(N)ncnc21 [Compound 29] | –
< 100 | 8 | < 100 | COCn1nc(C#Cc2cc(C(=O)Nc3ccc(CN4CCN(C)CC4)c(C(F)(F)F)c3)ccc2C)c2c(N)ncnc21 [Compound 19] | –
> 1000 | 3190 | > 1000 | CCn1nc(C#Cc2cc(C(=O)Nc3ccc(CN4CCN(C)CC4)c(C(F)(F)F)c3)ccc2O)c2c(N)ncnc21 [Compound 25] | –
< 100 | 7 | < 100 | Cc1ccc(C(=O)Nc2ccc(CN3CCN(C)CC3)c(C(F)(F)F)c2)cc1C#Cc1nn(C)c2ncnc(N)c12 [Compound 8] | –
